Measured values from patent publication US20230095530A1, “COMPOUND USED AS RET KINASE INHIBITOR AND APPLICATION THEREOF” (TYK Medicines, Inc., priority 2019, published 2023).
Read-outs that look alike come from different tables or passages of the source.

What was measured:
[1] = tested on: tumor patients with RET fusion and mutation; conditions: phase I, cited from earlier work
[2] = target: wild-type RET kinase (Homo sapiens, UniProt P07949); experiment: Kinase activity assay against wild-type RET at ATP Km (33P-ATP, filter-binding); type: biochemical; conditions: ATP Km concentration, 10 concentrations
Sequence of wild-type RET kinase (P07949 29-1114): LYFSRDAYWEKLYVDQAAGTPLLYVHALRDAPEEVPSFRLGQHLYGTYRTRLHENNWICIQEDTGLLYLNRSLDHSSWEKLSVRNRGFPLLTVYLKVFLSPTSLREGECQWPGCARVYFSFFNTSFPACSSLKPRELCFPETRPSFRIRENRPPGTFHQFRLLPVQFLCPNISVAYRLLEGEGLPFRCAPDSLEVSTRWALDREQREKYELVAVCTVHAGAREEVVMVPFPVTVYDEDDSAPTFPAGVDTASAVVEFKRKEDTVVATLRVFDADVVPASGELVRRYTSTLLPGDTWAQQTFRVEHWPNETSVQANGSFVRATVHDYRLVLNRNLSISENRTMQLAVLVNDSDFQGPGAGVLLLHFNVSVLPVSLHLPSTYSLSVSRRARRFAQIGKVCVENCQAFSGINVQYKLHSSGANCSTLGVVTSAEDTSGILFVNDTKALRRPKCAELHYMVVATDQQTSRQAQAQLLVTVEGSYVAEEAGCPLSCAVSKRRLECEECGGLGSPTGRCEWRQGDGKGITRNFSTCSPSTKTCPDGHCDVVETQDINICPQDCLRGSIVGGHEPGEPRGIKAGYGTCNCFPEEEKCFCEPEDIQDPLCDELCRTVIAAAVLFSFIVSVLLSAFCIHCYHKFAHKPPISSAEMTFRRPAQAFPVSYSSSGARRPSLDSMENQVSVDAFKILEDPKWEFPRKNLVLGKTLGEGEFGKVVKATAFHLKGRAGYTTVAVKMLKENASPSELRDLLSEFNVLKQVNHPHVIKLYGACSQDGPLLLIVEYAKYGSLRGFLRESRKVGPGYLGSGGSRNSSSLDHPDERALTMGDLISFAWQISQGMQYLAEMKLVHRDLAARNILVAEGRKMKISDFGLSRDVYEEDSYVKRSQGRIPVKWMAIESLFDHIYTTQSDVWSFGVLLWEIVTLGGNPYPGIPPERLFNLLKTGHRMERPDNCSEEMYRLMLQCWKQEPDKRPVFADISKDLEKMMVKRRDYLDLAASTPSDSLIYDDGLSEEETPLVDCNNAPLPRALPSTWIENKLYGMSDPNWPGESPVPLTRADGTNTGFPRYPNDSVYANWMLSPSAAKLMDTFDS
Procedure: […]. The biological activity screening of the compounds will be determined repeatedly at 10 concentrations.
Each sample was prepared into a solution with a concentration of 10 mM.
The test compound was dissolved in 100% dimethyl sulfoxide to a specific concentration. Integra Viaflo Assist was used to assist DMSO for (continuous) dilution.
Adding kinase into the newly prepared basic reaction buffer:
Adding any desired cofactors to the substrate solution;
Adding wild-type RET kinase into the substrate solution and gently mixing;
Using Acoustic technology (Echo 550; nanoliter range) to feed the compounds in 100% of dimethyl sulfoxide into the kinase reaction mixture and incubated at room temperature for 20 minutes.
Adding 33P-ATP (specific activity 10 Ci/1) into the reaction mixture to start the reaction.
Incubated at room temperature for 2 hours;
Radioactivity was detected by filter-binding method;
Kinase activity data was expressed as the percentage of remaining kinase activity in the test sample compared to the vehicle (dimethyl sulfoxide) reaction. Prism (GRAPHPAD software) was used to obtain IC50 value and curve-fitting.

| Structure (SMILES) | IC50 [2] [nM] | further results |
| --- | --- | --- |
| CO[C@]1(C(=O)N[C@@H](C)c2ccc(-n3cc(F)cn3)nc2)CC[C@H](c2nc(C)cc(Nc3cc(C)[nH]n3)n2)CC1 [BLU-667] |  | ORR ([1]; patients with medullary thyroid carcinoma): 40%; ORR ([1]; patients with non-small cell lung cancer): 50%; overall remission rate (ORR) ([1]; tumor patients with RET fusion and mutation): 45% |
| COc1ccc(CN2CCC(n3cc(-c4cc(-c5cnn(C)c5)cn5ncc(C#N)c45)cn3)C2)cn1 (stereo not drawn) [Compound C1] | 1.56 |  |
| COc1ccc(CN2CCCC(n3cc(-c4cc(-c5cnn(C)c5)cn5ncc(C#N)c45)cn3)C2)cn1 (stereo not drawn) [Compound C2] | 3.52 |  |
| COc1ccc(CN2C3CC2CN(c2ccc(-c4cc(OCC(C)(C)O)cc5nccc(C#N)c45)cn2)C3)cn1 [Compound C3] | 226 |  |
| COc1ccc(CN2CCC(n3ccc(-c4cc(-c5cnn(C)c5)cn5ncc(C#N)c45)cc3=O)C2)cn1 (stereo not drawn) [Compound C5] | 40.7 |  |
| COc1ccc(CN2CCCC(n3ccc(-c4cc(-c5cnn(C)c5)cn5ncc(C#N)c45)cc3=O)C2)cn1 (stereo not drawn) [Compound C7] | 27.3 |  |
| COc1ccc(CN2CCC(n3ccc(-c4cc(-c5cnn(C)c5)cn5ncc(C#N)c45)cc3=O)CC2)cn1 [Compound C8] | 58 |  |
